# Key:
# Experiment in all cases: KINOMEscan competition binding
# Conditions in all cases: compound 10.0 µM
# ACVR1 (human) = ACVR1 (human) (UniProt Q04771)
# AKT3 (human) = AKT3 (human) (UniProt Q9Y243)
# CDK11B (human) = CDK11B (human) (UniProt P21127)
# CDK17 (human) = CDK17 (human) (UniProt Q00537)
# CIT (human) = CIT (human) (UniProt O14578)
# CSK (human) = CSK (human) (UniProt P41240)
# CSNK1G3 (human) = CSNK1G3 (human) (UniProt Q9Y6M4)
# [1] = system: EGFR (human), P00533 [A750P; 747-749 del]
# EPHA1 (human) = EPHA1 (human) (UniProt P21709)
# EPHA3 (human) = EPHA3 (human) (UniProt P29320)
# EPHB4 (human) = EPHB4 (human) (UniProt P54760)
# EPHB4 (human), sequence (P54760 whole entry, looked up): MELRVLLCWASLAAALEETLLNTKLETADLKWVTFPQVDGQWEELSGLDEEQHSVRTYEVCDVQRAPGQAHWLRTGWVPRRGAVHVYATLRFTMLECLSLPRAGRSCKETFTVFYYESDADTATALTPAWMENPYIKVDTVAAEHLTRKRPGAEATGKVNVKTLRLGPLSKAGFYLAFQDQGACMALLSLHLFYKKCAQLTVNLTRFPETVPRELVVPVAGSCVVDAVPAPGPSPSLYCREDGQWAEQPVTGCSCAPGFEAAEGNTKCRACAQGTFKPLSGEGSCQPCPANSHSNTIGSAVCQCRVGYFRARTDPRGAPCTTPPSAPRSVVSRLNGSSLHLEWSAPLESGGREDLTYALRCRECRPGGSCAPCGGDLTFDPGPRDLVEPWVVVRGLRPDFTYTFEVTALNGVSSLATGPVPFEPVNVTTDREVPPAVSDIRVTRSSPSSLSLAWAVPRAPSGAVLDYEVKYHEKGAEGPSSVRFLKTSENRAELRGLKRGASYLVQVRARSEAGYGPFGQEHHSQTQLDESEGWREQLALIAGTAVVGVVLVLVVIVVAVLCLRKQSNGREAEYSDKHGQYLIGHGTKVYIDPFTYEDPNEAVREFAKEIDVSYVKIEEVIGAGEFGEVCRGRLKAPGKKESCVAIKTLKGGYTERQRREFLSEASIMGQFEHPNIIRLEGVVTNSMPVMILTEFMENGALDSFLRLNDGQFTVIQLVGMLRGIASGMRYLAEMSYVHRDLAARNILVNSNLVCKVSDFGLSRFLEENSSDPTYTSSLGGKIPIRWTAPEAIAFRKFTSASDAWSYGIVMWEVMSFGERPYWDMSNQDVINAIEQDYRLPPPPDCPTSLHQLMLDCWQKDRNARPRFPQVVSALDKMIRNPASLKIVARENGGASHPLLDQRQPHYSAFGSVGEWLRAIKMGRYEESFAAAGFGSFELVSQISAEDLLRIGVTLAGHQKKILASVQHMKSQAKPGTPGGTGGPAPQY
# [2] = target: JAK2 JH1 catalytic (human) (UniProt O60674)
# JAK2 JH1 catalytic (human), sequence (O60674 whole entry, looked up): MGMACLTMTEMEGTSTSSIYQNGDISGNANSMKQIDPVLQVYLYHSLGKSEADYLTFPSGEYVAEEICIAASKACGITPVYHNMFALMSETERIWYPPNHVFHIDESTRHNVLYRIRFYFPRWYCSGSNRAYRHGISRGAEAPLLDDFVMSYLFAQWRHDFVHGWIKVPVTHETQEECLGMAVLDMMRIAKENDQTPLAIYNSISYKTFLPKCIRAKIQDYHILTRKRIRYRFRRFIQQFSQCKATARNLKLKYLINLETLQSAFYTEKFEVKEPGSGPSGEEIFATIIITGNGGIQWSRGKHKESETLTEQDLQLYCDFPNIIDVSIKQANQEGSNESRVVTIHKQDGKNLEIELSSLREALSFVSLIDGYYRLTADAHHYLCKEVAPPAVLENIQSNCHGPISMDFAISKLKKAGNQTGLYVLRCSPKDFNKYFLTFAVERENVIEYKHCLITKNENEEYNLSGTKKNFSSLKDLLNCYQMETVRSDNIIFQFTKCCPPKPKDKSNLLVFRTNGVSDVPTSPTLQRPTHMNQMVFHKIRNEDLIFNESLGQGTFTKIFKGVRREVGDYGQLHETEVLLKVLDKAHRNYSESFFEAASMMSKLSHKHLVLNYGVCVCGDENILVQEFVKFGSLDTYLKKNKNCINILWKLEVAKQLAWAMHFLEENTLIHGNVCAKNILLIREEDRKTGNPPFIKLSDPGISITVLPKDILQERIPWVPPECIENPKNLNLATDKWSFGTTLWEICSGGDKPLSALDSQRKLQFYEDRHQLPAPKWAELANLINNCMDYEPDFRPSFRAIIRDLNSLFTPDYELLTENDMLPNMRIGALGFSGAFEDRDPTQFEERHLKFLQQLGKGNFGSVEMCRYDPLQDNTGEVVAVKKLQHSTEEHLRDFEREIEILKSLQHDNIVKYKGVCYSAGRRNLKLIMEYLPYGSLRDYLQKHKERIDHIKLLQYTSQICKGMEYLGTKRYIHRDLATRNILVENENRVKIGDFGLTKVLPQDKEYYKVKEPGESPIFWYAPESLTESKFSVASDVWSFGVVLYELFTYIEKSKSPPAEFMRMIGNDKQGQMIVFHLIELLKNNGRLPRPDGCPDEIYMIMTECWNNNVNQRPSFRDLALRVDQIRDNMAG
# MAP2K3 (human) = MAP2K3 (human) (UniProt P46734)
# MAP3K10 (human) = MAP3K10 (human) (UniProt Q02779)
# MAPK10 (human) = MAPK10 (human) (UniProt P53779)
# MAPK10 (human), sequence (P53779 whole entry, looked up): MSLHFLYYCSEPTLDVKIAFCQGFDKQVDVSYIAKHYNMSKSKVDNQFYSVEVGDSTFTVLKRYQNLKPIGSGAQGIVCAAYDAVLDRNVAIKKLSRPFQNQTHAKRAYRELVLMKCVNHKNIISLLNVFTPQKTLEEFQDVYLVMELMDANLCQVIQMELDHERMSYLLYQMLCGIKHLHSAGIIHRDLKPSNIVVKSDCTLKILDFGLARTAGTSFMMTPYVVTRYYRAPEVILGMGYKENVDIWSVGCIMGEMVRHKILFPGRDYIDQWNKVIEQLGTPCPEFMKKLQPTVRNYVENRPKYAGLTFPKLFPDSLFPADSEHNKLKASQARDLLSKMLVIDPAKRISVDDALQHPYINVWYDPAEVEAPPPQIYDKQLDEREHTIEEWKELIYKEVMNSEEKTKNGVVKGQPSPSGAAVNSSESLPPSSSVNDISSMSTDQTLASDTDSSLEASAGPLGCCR
# MLTK (human) = MLTK (human) (UniProt Q9NYL2)
# MYLK4 (human) = MYLK4 (human) (UniProt Q86YV6)
# PDGFRA (human) = PDGFRA (human) (UniProt P16234)
# PDPK1 (human) = PDPK1 (human) (UniProt O15530)
# PDPK1 (human), sequence (O15530 whole entry, looked up): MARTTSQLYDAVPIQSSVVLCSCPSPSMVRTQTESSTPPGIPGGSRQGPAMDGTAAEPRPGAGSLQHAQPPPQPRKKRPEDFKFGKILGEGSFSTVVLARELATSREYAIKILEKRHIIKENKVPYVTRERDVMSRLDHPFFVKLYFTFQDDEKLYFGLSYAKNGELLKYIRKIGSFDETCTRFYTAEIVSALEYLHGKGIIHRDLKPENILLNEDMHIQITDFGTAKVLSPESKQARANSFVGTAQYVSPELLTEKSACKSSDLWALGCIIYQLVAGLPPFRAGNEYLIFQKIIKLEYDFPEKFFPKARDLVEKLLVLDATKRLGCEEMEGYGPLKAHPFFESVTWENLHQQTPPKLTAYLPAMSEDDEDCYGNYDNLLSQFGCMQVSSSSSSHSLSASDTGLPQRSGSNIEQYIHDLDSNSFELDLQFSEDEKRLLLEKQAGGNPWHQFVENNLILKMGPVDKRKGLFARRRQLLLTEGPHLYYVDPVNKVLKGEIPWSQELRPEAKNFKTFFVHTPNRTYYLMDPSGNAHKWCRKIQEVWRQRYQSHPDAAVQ
# PRKACA (human) = PRKACA (human) (UniProt P17612)
# PRKCH (human) = PRKCH (human) (UniProt P24723)
# PRKCH (human), sequence (P24723 whole entry, looked up): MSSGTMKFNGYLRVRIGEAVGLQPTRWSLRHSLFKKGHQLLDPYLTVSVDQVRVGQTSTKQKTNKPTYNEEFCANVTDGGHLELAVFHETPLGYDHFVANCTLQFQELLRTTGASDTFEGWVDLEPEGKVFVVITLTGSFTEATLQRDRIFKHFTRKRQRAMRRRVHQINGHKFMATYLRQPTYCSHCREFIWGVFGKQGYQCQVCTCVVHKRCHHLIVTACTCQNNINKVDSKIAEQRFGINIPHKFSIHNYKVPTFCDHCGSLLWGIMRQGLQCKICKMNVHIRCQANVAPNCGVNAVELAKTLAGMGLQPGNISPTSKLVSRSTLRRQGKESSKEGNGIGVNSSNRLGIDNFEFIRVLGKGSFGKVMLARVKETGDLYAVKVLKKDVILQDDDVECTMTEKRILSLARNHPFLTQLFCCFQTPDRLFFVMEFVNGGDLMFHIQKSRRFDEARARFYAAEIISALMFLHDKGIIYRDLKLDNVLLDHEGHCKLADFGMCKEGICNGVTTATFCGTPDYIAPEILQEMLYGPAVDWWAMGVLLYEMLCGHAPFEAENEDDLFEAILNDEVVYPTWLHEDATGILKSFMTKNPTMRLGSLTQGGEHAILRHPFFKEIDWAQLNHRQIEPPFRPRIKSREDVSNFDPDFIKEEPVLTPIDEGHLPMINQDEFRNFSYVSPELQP
# PRKD1 (human) = PRKD1 (human) (UniProt Q15139)
# RIPK4 (human) = RIPK4 (human) (UniProt P57078)
# ROS1 (human) = ROS1 (human) (UniProt P08922)
# RPS6KA2 KD2 (human) = RPS6KA2 KD2 (human) (UniProt Q15349)
# RPS6KA5 KD2 (human) = RPS6KA5 KD2 (human) (UniProt O75582)
# RPS6KA6 KD2 (human) = RPS6KA6 KD2 (human) (UniProt Q9UK32)
# RPS6KA6 KD2 (human), sequence (Q9UK32 whole entry, looked up): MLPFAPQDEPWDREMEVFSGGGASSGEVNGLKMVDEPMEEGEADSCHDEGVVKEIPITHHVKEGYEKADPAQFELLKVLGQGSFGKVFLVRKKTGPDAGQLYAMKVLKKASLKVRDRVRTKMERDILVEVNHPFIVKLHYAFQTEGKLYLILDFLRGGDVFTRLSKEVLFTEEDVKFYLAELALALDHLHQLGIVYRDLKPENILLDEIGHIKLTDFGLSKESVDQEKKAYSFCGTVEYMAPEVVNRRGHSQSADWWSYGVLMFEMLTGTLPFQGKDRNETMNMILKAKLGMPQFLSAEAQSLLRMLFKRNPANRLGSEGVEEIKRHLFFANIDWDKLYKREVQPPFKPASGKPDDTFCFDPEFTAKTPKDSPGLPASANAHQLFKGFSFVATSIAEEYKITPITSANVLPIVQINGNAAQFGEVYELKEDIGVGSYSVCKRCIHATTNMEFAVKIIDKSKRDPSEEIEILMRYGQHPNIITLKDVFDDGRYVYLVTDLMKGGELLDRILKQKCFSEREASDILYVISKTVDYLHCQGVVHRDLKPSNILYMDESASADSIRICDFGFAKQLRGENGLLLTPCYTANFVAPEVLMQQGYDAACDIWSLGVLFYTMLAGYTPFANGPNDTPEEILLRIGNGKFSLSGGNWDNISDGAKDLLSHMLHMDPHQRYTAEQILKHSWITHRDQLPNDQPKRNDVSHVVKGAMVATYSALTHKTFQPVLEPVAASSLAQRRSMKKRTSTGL
# SGK110 (human) = SGK110 (human) (UniProt P0C264)
# TLK1 (human) = TLK1 (human) (UniProt Q9UKI8)
# TXK (human) = TXK (human) (UniProt P42681)
# WEE1 (human) = WEE1 (human) (UniProt P30291)
# IRAK1 (human) = IRAK1 (human) (UniProt P51617)
# OXSR1 (human) = OXSR1 (human) (UniProt O95747)
# PI4KB (human) = PI4KB (human) (UniProt Q9UBF8)
# [3] = system: PIK3CA (human), P42336 [H1047L]
# ACVR1 (human), sequence (Q04771 whole entry, looked up): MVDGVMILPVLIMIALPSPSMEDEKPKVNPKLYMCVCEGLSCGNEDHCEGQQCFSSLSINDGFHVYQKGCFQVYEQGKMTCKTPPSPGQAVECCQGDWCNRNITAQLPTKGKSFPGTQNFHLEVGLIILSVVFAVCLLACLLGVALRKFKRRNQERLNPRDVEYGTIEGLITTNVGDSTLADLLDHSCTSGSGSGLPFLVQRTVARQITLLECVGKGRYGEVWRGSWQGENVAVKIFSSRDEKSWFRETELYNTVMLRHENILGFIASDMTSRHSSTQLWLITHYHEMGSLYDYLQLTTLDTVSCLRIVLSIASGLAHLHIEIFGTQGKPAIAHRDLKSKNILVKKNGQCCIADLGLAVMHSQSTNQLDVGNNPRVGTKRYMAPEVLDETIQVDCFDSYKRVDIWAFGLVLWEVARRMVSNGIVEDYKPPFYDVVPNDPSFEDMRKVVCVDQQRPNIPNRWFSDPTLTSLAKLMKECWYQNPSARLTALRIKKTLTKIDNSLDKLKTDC
"kinase still bound, per cent of control (ACVR1 (human)) [%]","kinase still bound, per cent of control (AKT3 (human)) [%]","kinase still bound, per cent of control (CDK11B (human)) [%]","kinase still bound, per cent of control (CDK17 (human)) [%]","kinase still bound, per cent of control (CIT (human)) [%]","kinase still bound, per cent of control (CSK (human)) [%]","kinase still bound, per cent of control (CSNK1G3 (human)) [%]","kinase still bound, per cent of control [1] [%]","kinase still bound, per cent of control (EPHA1 (human)) [%]","kinase still bound, per cent of control (EPHA3 (human)) [%]","kinase still bound, per cent of control (EPHB4 (human)) [%]","kinase still bound, per cent of control [2] [%]","kinase still bound, per cent of control (MAP2K3 (human)) [%]","kinase still bound, per cent of control (MAP3K10 (human)) [%]","kinase still bound, per cent of control (MAPK10 (human)) [%]","kinase still bound, per cent of control (MLTK (human)) [%]","kinase still bound, per cent of control (MYLK4 (human)) [%]","kinase still bound, per cent of control (PDGFRA (human)) [%]","kinase still bound, per cent of control (PDPK1 (human)) [%]","kinase still bound, per cent of control (PRKACA (human)) [%]",SMILES,further results
100,100,100,100,31,29,100,100,100,9.5,15,100,100,100,100,7.8,100,1.2,100,100,Cc1cn(-c2cc(C(=O)Nc3ccc(C)c(NC(=O)c4ccno4)c3)cc(C(F)(F)F)c2)cn1,"kinase still bound, per cent of control (IRAK1 (human)): 100%; kinase still bound, per cent of control (OXSR1 (human)): 100%; kinase still bound, per cent of control (PI4KB (human)): 100%; kinase still bound, per cent of control [3]: 100%; kinase still bound, per cent of control (PRKCH (human)): 100%; kinase still bound, per cent of control (PRKD1 (human)): 100%; kinase still bound, per cent of control (RIPK4 (human)): 100%; kinase still bound, per cent of control (ROS1 (human)): 100%; kinase still bound, per cent of control (RPS6KA2 KD2 (human)): 100%; kinase still bound, per cent of control (RPS6KA5 KD2 (human)): 100%; kinase still bound, per cent of control (RPS6KA6 KD2 (human)): 100%; kinase still bound, per cent of control (SGK110 (human)): 100%; kinase still bound, per cent of control (TLK1 (human)): 100%; kinase still bound, per cent of control (TXK (human)): 12%; kinase still bound, per cent of control (WEE1 (human)): 100%"
100,100,8.3,100,0.7,1.2,100,0.6,0.75,0.1,0.3,2.3,100,100,100,2.1,100,8.6,100,33,COc1ccc(N(C(=O)Oc2cc(C(=O)Nc3cccc(C(F)(F)F)c3)ccc2C)c2ccnc(Nc3ccc(N4CCN(C)CC4)cc3)n2)c(OC)c1,"kinase still bound, per cent of control (PRKCH (human)): 100%; kinase still bound, per cent of control (PRKD1 (human)): 100%; kinase still bound, per cent of control (ROS1 (human)): 1.9%; kinase still bound, per cent of control (RPS6KA2 KD2 (human)): 100%; kinase still bound, per cent of control (RPS6KA5 KD2 (human)): 100%; kinase still bound, per cent of control (RPS6KA6 KD2 (human)): 100%; kinase still bound, per cent of control (TLK1 (human)): 100%; kinase still bound, per cent of control (TXK (human)): 0.65%; kinase still bound, per cent of control (WEE1 (human)): 100%"

# Second part, the compound before the results:
SMILES,"kinase still bound, per cent of control (ACVR1 (human)) [%]","kinase still bound, per cent of control (AKT3 (human)) [%]","kinase still bound, per cent of control (CDK11B (human)) [%]","kinase still bound, per cent of control (CDK17 (human)) [%]","kinase still bound, per cent of control (CIT (human)) [%]","kinase still bound, per cent of control (CSK (human)) [%]","kinase still bound, per cent of control (CSNK1G3 (human)) [%]","kinase still bound, per cent of control [1] [%]","kinase still bound, per cent of control (EPHA1 (human)) [%]","kinase still bound, per cent of control (EPHA3 (human)) [%]","kinase still bound, per cent of control (EPHB4 (human)) [%]","kinase still bound, per cent of control [2] [%]","kinase still bound, per cent of control (MAP2K3 (human)) [%]","kinase still bound, per cent of control (MAP3K10 (human)) [%]","kinase still bound, per cent of control (MAPK10 (human)) [%]","kinase still bound, per cent of control (MLTK (human)) [%]","kinase still bound, per cent of control (MYLK4 (human)) [%]","kinase still bound, per cent of control (PDGFRA (human)) [%]","kinase still bound, per cent of control (PDPK1 (human)) [%]","kinase still bound, per cent of control (PRKACA (human)) [%]",further results
COc1cc(N2CCC(C(N)=O)CC2)ccc1Nc1nc(N)c(Cl)c(Nc2ccccc2S(=O)(=O)C(C)C)n1,100,100,100,100,100,100,100,0.15,15,100,100,100,23,100,28,100,100,100,100,100,"kinase still bound, per cent of control (PRKCH (human)): 100%; kinase still bound, per cent of control (PRKD1 (human)): 100%; kinase still bound, per cent of control (RIPK4 (human)): 100%; kinase still bound, per cent of control (ROS1 (human)): 3.2%; kinase still bound, per cent of control (RPS6KA2 KD2 (human)): 18%; kinase still bound, per cent of control (RPS6KA5 KD2 (human)): 100%; kinase still bound, per cent of control (RPS6KA6 KD2 (human)): 9%; kinase still bound, per cent of control (SGK110 (human)): 100%; kinase still bound, per cent of control (TLK1 (human)): 100%; kinase still bound, per cent of control (TXK (human)): 100%; kinase still bound, per cent of control (WEE1 (human)): 100%"
CCOc1cc(N2CCC(O)CC2)ccc1Nc1ncc2c(n1)N(C)c1ccccc1C(=O)N2C,100,100,100,100,100,100,100,100,100,100,100,100,100,100,100,100,100,100,100,100,"kinase still bound, per cent of control (IRAK1 (human)): 100%; kinase still bound, per cent of control (OXSR1 (human)): 100%; kinase still bound, per cent of control (PI4KB (human)): 100%; kinase still bound, per cent of control [3]: 100%; kinase still bound, per cent of control (PRKCH (human)): 100%; kinase still bound, per cent of control (PRKD1 (human)): 100%; kinase still bound, per cent of control (RIPK4 (human)): 100%; kinase still bound, per cent of control (ROS1 (human)): 15%; kinase still bound, per cent of control (RPS6KA2 KD2 (human)): 100%; kinase still bound, per cent of control (RPS6KA5 KD2 (human)): 100%; kinase still bound, per cent of control (RPS6KA6 KD2 (human)): 31%; kinase still bound, per cent of control (SGK110 (human)): 100%; kinase still bound, per cent of control (TLK1 (human)): 100%; kinase still bound, per cent of control (TXK (human)): 100%; kinase still bound, per cent of control (WEE1 (human)): 100%"
COc1cc(C)c(Sc2cnc(NC(=O)c3ccc(CNC(C)C(C)C)cc3)s2)cc1C(=O)N1CCN(C(C)=O)CC1 (stereo unspecified),100,100,100,100,100,100,100,100,100,25,100,100,100,100,100,100,100,100,100,100,"kinase still bound, per cent of control (PRKCH (human)): 100%; kinase still bound, per cent of control (PRKD1 (human)): 100%; kinase still bound, per cent of control (RIPK4 (human)): 100%; kinase still bound, per cent of control (ROS1 (human)): 100%; kinase still bound, per cent of control (RPS6KA2 KD2 (human)): 100%; kinase still bound, per cent of control (RPS6KA5 KD2 (human)): 100%; kinase still bound, per cent of control (RPS6KA6 KD2 (human)): 100%; kinase still bound, per cent of control (SGK110 (human)): 100%; kinase still bound, per cent of control (TLK1 (human)): 100%; kinase still bound, per cent of control (TXK (human)): 100%; kinase still bound, per cent of control (WEE1 (human)): 100%"

# Reference: the kinase profiling compilation of Christmann-Franck et al. (2016)
